Measurements as given in patent US5620676A, “Biologically active ATP analogs” (priority 1995, dated 1997).
Entries after “also recorded” stand apart in the source; their conditions may differ. Like-named read-outs stand apart in the source and are kept apart here.

How the values were obtained:
[1] = test system: P2Y receptor (mesenteric artery); experiment: Relaxation of rabbit mesenteric artery
[2] = molecular target: T1, P2Y receptor (taenia coli) (Cavia porcellus, UniProt P59902); experiment: Relaxation of carbachol-contracted guinea pig taenia coli; conditions: for activity/potency in words, taenia coli: guinea pig taenia coli
T1 construct: Relaxant responses mediated via P2Y receptors were examined in guinea pig taenia coli; from tissue; host or cells: guinea pig taenia coli (carbachol-contracted)
T1 sequence (P59902 whole entry): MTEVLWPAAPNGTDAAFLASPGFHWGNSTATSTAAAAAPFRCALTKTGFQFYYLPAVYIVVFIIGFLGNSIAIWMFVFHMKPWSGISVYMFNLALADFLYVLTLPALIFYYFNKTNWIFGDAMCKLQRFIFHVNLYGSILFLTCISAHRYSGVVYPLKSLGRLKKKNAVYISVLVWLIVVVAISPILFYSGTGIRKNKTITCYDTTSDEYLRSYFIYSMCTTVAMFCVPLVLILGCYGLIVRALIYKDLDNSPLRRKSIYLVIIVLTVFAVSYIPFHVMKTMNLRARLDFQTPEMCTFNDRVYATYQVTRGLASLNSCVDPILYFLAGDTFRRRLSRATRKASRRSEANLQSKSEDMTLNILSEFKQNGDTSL
In short: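 Guinea pig taenia coli precontracted with 50 nM carbachol; relaxation to applied P2Y agonists expressed as percentage relaxation against negative log molar agonist concentration.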

P2Y receptors = experiment: Overall activity in P2Y receptor systems
Protocol: Phospholipase C activity: Stimulation of inositol phosphate formation by compounds of the present invention was measured in turkey erythrocyte membranes as described by Harden et al., supra and Boyer et al., supra. The K0.5 values were averaged from 3-8 independently determined dose-response curves for each compound. Briefly, one ml of washed turkey erythrocytes was incubated in inositol-free medium (DMEM; Gibco) with 0.5-1 mCi of 2-[^3 H]myoinositol (20 Ci/mmol; American Radiolabeled Chemicals Inc., St. Louis, Mo.)for 18-24 h in a humidified atmosphere of 95% air 5% CO2 at 37° C. Erythrocyte ghosts were prepared by rapid lysis in hypotonic buffer (5 mM sodium phosphate, pH 7.4, 5 mM MgCl2, 1 mM EGTA) as described by Boyer et al., supra. Phospholipase C activity was measured in 25 μl of [^3 H]inositol-labeled ghosts (≈175 μg of protein, 200-500,000 cpm/assay) in a medium containing 424 μM CaC12, 0.91 mM MgSO4, 2 mM EGTA, 115 mM KCl, 5 mM KH2 PO4, and 10 mM Hepes, pH 7.0. Assay (100 μl or 200 μl final volume) contained 1 μM GTPγS and the indicated concentrations of nucleotide analogs. Ghosts were incubated at 30° C. for 5 min, and total [^3 H]inositol phosphates were quantitated after purification by anion exchange chromatography according to Harden et al. (supra) and Boyer et al. (supra).
Muscular relaxation/contraction: Relaxant responses mediated via P2Y receptors were examined in guinea pig taenia coli, rabbit aorta, and rabbit mesenteric artery, as described by Hoyle et al. (Br. J. Pharmacol., 107, 367-374 (1992a)), Burnstock et al., (Br. J. Pharmacol., 90, 383-391 (1987a)), and Rubino et al., (Eur. J. Pharmacol., 212, 237-240 (1992)). Contractile responses mediated via P2X receptors were examined in the guinea pig urinary bladder and vas deferens, and rabbit saphenous artery, also using standard methods (see Hoyle et al., supra., 1992; Hoyle et al., Br. J. Pharmacol., 99, 617-621 (1990); and Burnstock et al., Br. J. Pharmacol., 90, 111-120 (1987b)).

P2X receptors = experiment: Overall activity in P2X receptor systems
[3] = molecular target: T2, P2Y receptor (turkey erythrocyte membranes) (Meleagris gallopavo, UniProt P49652); experiment: Stimulation of phospholipase C (inositol phosphate formation) in turkey erythrocyte membranes; type: biochemical; conditions: for activity/potency in words, turkey erythrocyte / EC50: turkey erythrocyte membranes; for EC50: mean ± S.E.M. for at least 2 determinations, read-out: phosphatidyl inositol metabolism (K0.5, nM) erythrocyte
T2 construct: from tissue; host or cells: washed turkey erythrocytes, ghosts prepared by hypotonic lysis
T2 sequence (P49652 whole entry): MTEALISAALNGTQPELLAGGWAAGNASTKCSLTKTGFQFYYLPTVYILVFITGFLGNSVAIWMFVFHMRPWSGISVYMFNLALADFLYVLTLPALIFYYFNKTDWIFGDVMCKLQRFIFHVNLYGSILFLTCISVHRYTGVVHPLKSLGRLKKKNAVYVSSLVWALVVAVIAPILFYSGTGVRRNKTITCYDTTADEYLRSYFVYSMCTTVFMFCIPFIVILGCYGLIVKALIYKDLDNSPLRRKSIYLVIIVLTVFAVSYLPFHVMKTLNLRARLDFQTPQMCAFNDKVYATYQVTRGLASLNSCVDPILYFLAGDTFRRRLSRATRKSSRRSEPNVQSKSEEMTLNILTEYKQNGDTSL
In short: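 Erythrocytes were labelled 18-24 h at 37 °C with [3H]myoinositol, and ghosts were made by hypotonic lysis. Ghosts (≈175 μg protein) were incubated 5 min at 30 °C in Hepes buffer pH 7.0 with 1 μM GTPγS and nucleotide analogs. Total [3H]inositol phosphates were purified by anion exchange; K0.5 averaged from 3-8 dose-response curves.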

[4] = test system: P2Y receptor (aorta endothelium); experiment: Relaxation of noradrenalin-contracted rabbit aorta; conditions: for activity/potency/selectivity in words, aorta: rabbit aorta endothelial P2Y receptor
Protocol: In FIG. 14, the x-axis is also marked in units of the negative log of the molar concentration of applied putative P2Y receptor agonists and the y-axis is marked in units of the percentage relaxation of the 1 μM noradrenalin-induced contraction of rabbit aorta endothelium. In FIGS. 15-16, the x-axis is marked in units of the negative log of the molar concentration of applied putative p^2X receptor agonists and the y-axis is marked in units of the percentage contraction relative to a standard dose of KCl (i.e., 60 mM), as assessed in guinea pig isolated urinary bladder detrussor muscle (FIG. 15) and guinea pig isolated vas deferens (FIG. 16).

[5] = molecular target: T3, adenylyl cyclase linked P2Y receptor (C6 rat glioma cells) (Rattus norvegicus, UniProt Q9EPX4); experiment: Inhibition of adenylyl cyclase in C6 rat glioma cells; type: cell-based; conditions: versus phospholipase C linked receptor
T3 construct: endogenous in cells; host or cells: C6 rat glioma cells
T3 sequence (Q9EPX4 whole entry): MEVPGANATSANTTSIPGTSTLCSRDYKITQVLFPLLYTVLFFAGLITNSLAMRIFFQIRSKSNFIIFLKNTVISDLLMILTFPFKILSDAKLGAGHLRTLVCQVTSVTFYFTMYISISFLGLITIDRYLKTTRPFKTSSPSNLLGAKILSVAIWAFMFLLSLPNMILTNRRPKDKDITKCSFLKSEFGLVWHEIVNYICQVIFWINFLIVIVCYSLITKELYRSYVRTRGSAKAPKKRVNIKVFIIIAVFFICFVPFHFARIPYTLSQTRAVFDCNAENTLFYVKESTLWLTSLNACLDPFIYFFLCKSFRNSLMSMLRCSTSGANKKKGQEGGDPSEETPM
Protocol: This example illustrates the inhibition of adenylyl cyclase activity in C6 rat glioma cells, as a function of the presence of certain ATP analogs in the medium in which the C6 cells were cultured.
Cells were labelled by incubation for 2 hours in the presence of 1 to 2 mCi of tritiated adenine/ml in the medium. Cells were washed twice with HEPES (20 mM, pH 7.5)-buffered Eagle's medium and then preincubated for 10 minutes at 37° C. with fresh medium containing 200 μM 3-isobutyl-1-methylxanthine. Agonist incubations were initiated by the simultaneous addition of 10 μM isoproterenol and various concentrations of nucleotides. The reactions were stopped after 10 minutes of aspiration of the nucleotide-containing medium and addition of 1 ml of ice-cold 5% trichloroacetic acid.

[6] = listed as adenosine-N1-oxide triphosphate

Compound | activity/potency in words, mesenteric artery [1] | EC50 [2] [µM] | overall activity in words, P2Y systems (P2Y receptors) | overall activity in words, P2X systems (P2X receptors) | activity/potency in words, turkey erythrocyte [3] | activity/potency in words, turkey erythrocyte [3, 6] | EC50 [3] [nM] | activity/potency/selectivity in words, aorta [4] | activity/potency/selectivity in words, aorta [4, 6] | relaxation pD2, aorta ([4]; rabbit aorta, log molar units) | activity/potency in words, taenia coli ([2]; listed as N^6 -methyl ATP) | activity/potency in words, taenia coli ([2]; listed as N^6 -methylATP) | selectivity for the adenylyl cyclase linked receptor, in words [5] | overall activity in words, P2X systems (P2X receptors; listed as N^6 -methyl ATP) | overall activity in words, P2X systems (P2X receptors; listed as N^6 -methyl-ATP) | fold less potent than ATP, turkey erythrocyte ([3]; relative to ATP)
Nc1c2ncn([C@@H]3O[C@H](COP(=O)(O)OP(=O)(O)OP(=O)(O)O)[C@@H](O)[C@H]3O)c2nc[n+]1[O-] [Adenosine N1-oxide 5'-triphosphate, adenosine N1-oxide 5'-triphosphate, reference compound] | no activity at the mesenteric artery P2Y receptor | 12.6 | specific for P2Y receptors | inactive in the P2X receptor systems | somewhat active in turkey erythrocytes | less potent than ATP at the turkey erythrocyte P2Y receptor | 16900 | selective for the endothelial receptors of the rabbit aorta versus the mesenteric artery and taenia coli | much more potent than ATP | 6.7 | – | – | – | – | – | –
CNc1ncnc2c1ncn2[C@@H]1O[C@H](COP(=O)(O)OP(=O)(O)OP(=O)(O)O)[C@@H](O)[C@H]1O [N^6 -Me-ATP, N^6 -Methyl-adenosine 5'-triphosphate] | not activated at concentrations of the N^6 -methyl derivative as high as 10^-5 M | 1.58 | inactive in vascular smooth muscle | – | – | – | 19000 | significantly less activated | – | – | equipotent with ATP in the taenia coli | selectivity; also recorded: at an equal level as if activated by ATP itself | slightly selective of the phospholipase C-linked receptor | inactive in P2X preparations | inactive in the P2X receptor systems | 7 -fold
